Results from patent US10624887B2, “Compositions of (-)-17-(cyclobutylmethyl)morphinan-3,14,-diol” (priority 2010, dated 2020).
Entries after “also recorded” stand apart in the source; their conditions may differ. Read-outs that look alike come from different tables or passages of the source.

Key:
[1] = oral; dosage form that models extended release
[2] = intranasal, single dose, cited from earlier work
[3] = test system: paclitaxel induced painful neuropathy; assay: Paclitaxel induced painful neuropathy, mechanical allodynia (von Frey filaments); assay type: in vivo, Wistar rats; conditions: paclitaxel neuropathic rats
Excerpt: The aim of this study was to evaluate the effect of oral administration of butorphanol in rats with paclitaxel induced painful neuropathy. The primary measurements were made mechanical and thermal allodynia designed to detect effects of the treatment(s) on neuropathic pain.
Wistar rats weighing 250±20 g were maintained on standard laboratory diet and having free access to tap water ad lib were employed in the present study. They were housed in the animal house and were exposed to 12 hr cycle of light and dark. The experiments were conducted in a semi-sound proof laboratory. Care of the animals was in accordance with guidelines for experimentation on animals.
Rats were injected on five alternate days (day 4, 6, 8, 10 & 12) with paclitaxel (2 mg/kg i.p.) using an injection volume of 2 ml/kg. Thus, the cumulative dose of paclitaxel was computed to be 10 mg/kg. […]
Mechano-allodynia was assessed using von Frey filaments. […] Both hind paws were tested for allodynia and the average of the two was recorded as data. Results were expressed in grams and determined before and 30 and 60 min after the administration of the test drugs.
The anti-nociceptive effect was plotted assessed having time (relative to dosing time point) on the x-axis and percent maximum possible effect (% MPE) on the y-axis. The results were expressed as mean±standard error of means (S.E.M.). […]

nociception in rats = assay: Radiant heat tail flick test; assay type: in vivo, Wistar rats; conditions: butorphanol 1 mg/kg
Excerpt: The tail flick test was first described by D'Amour and Smith (1941), and remains essentially unchanged in application. (See generally D'Amour, F. E. and Smith, D. L., “A method for determining loss of pain sensation”, J. Pharmacol. Exp. Therap., 72:74-79(1941); Dewey, D. L. and Harris, L. S., The Tail-flick test. In: S. Ehrenpreis and A. Neidle (Eds.), Methods in Narcotic Research, Marcel Dekker, Inc., New York, 1975, pp. 101-109; and Dubner, R. and Ren, K., “Assessing transient and persistent pain in animals” In: P. D. Wall and R. Melzack (Eds.), Textbook of Pain, Churchill Livingstone, London, 1999, pp. 359-369). Quite simply, the tail of a rat or mouse is exposed to radiant heat, and the latency to withdraw is determined. The basal heat intensity is set so that naive rats withdraw their tails within 2 to 3 sec. A cut-off latency of 10 sec (i.e., 3 to 4 times basal control value) is commonly employed to prevent tissue damage. […]
Three groups were employed in the present study with each group comprising of 8 animals. […] Area under the curve was calculated using a graph between % MPE and time. Area under the curve was employed as a quantitative measure of the analgesic effect of the treatments.
Nociceptive threshold was measured with the tail flick test (D'Amour and Smith, 1941). […] Tail flick latency is expressed as a percentage of the maximum possible effect (MPE): […]

opioid receptors = conditions: cited from earlier work

## Oc1ccc2c(c1)[C@@]13CCCC[C@@]1(O)[C@@H](C2)N(CC1CCC1)CC3 [butorphanol, (−)17-(Cyclobutylmethyl)morphinan-3,14-diol]
[1]
  therapeutic effect: robust therapeutic effects
[2]; 1 mg
  dizziness: 46%
  headache: 46%
  nausea: 38%
  oxygen desaturation: 3%
  vomiting: 17%
[2]; 2 mg
  dizziness: 58%
  headache: 29%
  nausea: 46%
  oxygen desaturation: 3%
  vomiting: 17%
[3]; oral
  time of peak effect post-administration (mechanical allodynia): 30 min
[3]; p.o. 0.01, 0.03, 0.1, 0.3 mg/kg, FIG. 17
  mechanical withdrawal threshold: dose dependent increase; also recorded: significant increase
Nociception in rats; intra-gastric, intra-ileal and intra-colonic administration, each, rats
  tail flick latency: significant increase
Nociception in rats; tail flick, FIG. 13
  antinociceptive effect (area under the curve of % MPE vs time), intra-colonic versus intra-gastric or intra-ileal: significantly greater antinociceptive effect
Opioid receptors
  activity at opioid receptors: partial agonist
